Reference: US20230374035A1, “RAS INHIBITORS” (Revolution Medicines, Inc., priority 2019, published 2023)
Read-outs that look alike come from different tables or passages of the source.

What was measured:
NCI-H358 (K-Ras G12C) = assay: CellTiter-Glo Cell Viability Assay; format: cell-based; conditions: Homo sapiens, NCI-H358, 120 h; H358, 5-day treatment
Description: Determination of Cell Viability in RAS Mutant Cancer Cell Lines
Protocol: CellTiter-Glo® Cell Viability Assay
Note—The following protocol describes a procedure for monitoring cell viability of K-Ras mutant cancer cell lines in response to a compound of the invention. Other RAS isoforms may be employed, though the number of cells to be seeded will vary based on cell line used.
Test compounds (132.5 nl) were directly dispensed into the assay plates containing cells. […] On day 5, assay plates and their contents were equilibrated to room temperature for approximately 30 minutes. […] Luminescence was measured using the PerkinElmer Enspire. Data were normalized by the following: (Sample signal/Avg. DMSO)*100. The data were fit using a four-parameter logistic fit.

NRAS Q61K = NRAS Q61K (Homo sapiens, UniProt P01111+P62937, Q61K); assay: Disruption of BRAF RBD interaction with Ras (FRET / MOA assay); format: biochemical
Method in brief: (§1)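 TR-FRET readout of BRAF RBD binding to nucleotide-loaded Ras (GMP-PNP), where compound promotes a ternary complex with Cyclophilin A that displaces RAF. Compound tested as a 10-point 3-fold dilution series from 30 μM final. Disruption is a drop in TR-FRET ratio versus DMSO wells; IC50 reported.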

NRAS Q61R = NRAS Q61R (Homo sapiens, UniProt P01111+P62937, Q61R); assay: as above; format: biochemical
Method in brief: as §1

KRAS Q61H = KRAS Q61H (Homo sapiens, UniProt P01116+P62937, Q61H); assay: Disruption of BRAF RBD interaction with K-Ras (FRET / MOA assay); format: biochemical
Description: (§2) Compound is present in plate wells as a 10-point 3-fold dilution series starting at a final concentration of 30 μM. […] Compounds that facilitate disruption of a Ras:RAF complex are identified as those eliciting a decrease in the TR-FRET ratio relative to DMSO control wells.
(§3) Note—The following protocol describes a procedure for monitoring disruption of K-Ras G12C (GMP-PNP) binding to BRAF^RBD by a compound of the invention. This protocol may also be executed substituting other Ras proteins or nucleotides.
(§4) The purpose of this biochemical assay was to measure the ability of test compounds to facilitate ternary complex formation between a nucleotide-loaded K-Ras isoform and Cyclophilin A; the resulting ternary complex disrupts binding to a BRAF^RBD construct, inhibiting K-Ras signaling through a RAF effector. Data is reported as IC50 values.
(§5) Compound was present in plate wells as a 10-point 3-fold dilution series starting at a final concentration of 30 μM. […] Compounds that facilitate disruption of a K-Ras:RAF complex were identified as those eliciting a decrease in the TR-FRET ratio relative to DMSO control wells.

KRAS G12C = KRAS G12C (Homo sapiens, UniProt P01116+P62937, G12C); assay: as above; format: biochemical
Description: as §2, §3, §4, §5

NRAS WT = NRAS WT (Homo sapiens, UniProt P01111+P62937); assay: Disruption of BRAF RBD interaction with Ras (FRET / MOA assay); format: biochemical
Method in brief: as §1

[1] = read-out: NRAS Q61K FRET data IC50
[2] = read-out: NRAS Q61R FRET data IC50
[3] = read-out: KRAS Q61H FRET data IC50
[4] = read-out: KRAS G12C FRET data IC50
[5] = read-out: NRAS WT FRET data IC50

Sequence of KRAS G12C (P01116 1-188 isoform P01116-2 G12C): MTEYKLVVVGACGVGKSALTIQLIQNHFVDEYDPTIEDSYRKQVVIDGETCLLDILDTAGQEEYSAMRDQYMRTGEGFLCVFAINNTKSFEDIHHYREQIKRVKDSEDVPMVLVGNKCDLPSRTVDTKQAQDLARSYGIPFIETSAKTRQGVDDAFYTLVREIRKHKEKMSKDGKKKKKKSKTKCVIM
Sequence of KRAS G12C (P62937 whole entry): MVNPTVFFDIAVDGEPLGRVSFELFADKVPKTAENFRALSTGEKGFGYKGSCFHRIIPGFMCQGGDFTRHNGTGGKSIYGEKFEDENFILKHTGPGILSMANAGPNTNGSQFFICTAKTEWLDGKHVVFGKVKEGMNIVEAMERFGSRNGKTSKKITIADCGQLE
Sequence of NRAS WT (P01111 whole entry): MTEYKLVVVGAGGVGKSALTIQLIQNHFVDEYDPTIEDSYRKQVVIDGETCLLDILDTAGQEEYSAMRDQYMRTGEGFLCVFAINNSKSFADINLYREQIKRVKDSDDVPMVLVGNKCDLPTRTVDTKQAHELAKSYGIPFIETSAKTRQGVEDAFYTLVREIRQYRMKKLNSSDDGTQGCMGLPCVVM
Sequence of NRAS WT (P62937 whole entry): as the sequence (P62937 whole entry) above
Sequence of NRAS Q61R (P01111 whole entry Q61R): as the sequence (P01111 whole entry) above, with Q61R counted along it
Sequence of NRAS Q61R (P62937 whole entry): as the sequence (P62937 whole entry) above
Sequence of NRAS Q61K (P01111 whole entry Q61K): as the sequence (P01111 whole entry) above, with Q61K counted along it
Sequence of NRAS Q61K (P62937 whole entry): as the sequence (P62937 whole entry) above
Sequence of KRAS Q61H (P01116 1-188 isoform P01116-2 Q61H): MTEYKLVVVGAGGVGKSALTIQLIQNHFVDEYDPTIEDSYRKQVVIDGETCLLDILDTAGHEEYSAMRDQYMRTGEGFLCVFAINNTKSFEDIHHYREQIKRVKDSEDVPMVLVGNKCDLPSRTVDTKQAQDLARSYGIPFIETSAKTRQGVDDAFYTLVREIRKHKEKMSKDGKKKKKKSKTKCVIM
Sequence of KRAS Q61H (P62937 whole entry): as the sequence (P62937 whole entry) above

SMILES | IC50 (NRAS Q61K; [1]) [µM] | IC50 (NRAS Q61R; [2]) [µM] | IC50 (KRAS Q61H; [3]) [µM] | IC50 (KRAS G12C; [4]) [µM] | also measured
CCn1c(-c2cccnc2[C@H](C)OC)c2c3cc(ccc31)-c1csc(n1)C[C@H](NC(=O)[C@H](C(C)C)N(C)C(=O)N1CC[C@@H]1C)C(=O)N1CCC[C@H](N1)C(=O)OCC(C)(C)C2 (atropisomer, axis not shown) [Compound A304] | 0.01 to 0.1 | 0.01 to 0.1 |  |  | IC50 (NCI-H358 (K-Ras G12C)): < 0.01 µM
CO[C@@H](C)c1ncccc1-c1c2c3cc(ccc3n1CC(F)(F)F)-c1csc(n1)C[C@H](NC(=O)[C@H](C(C)C)N(C)C(=O)N1CC(N(C)C)C1)C(=O)N1CCC[C@H](N1)C(=O)OCC(C)(C)C2 (atropisomer, axis not shown) [Compound A328] | > 10 | > 10 | > 10 | > 10 | IC50 (NRAS WT; [5]): > 10 µM
CCn1c(-c2cccnc2[C@H](C)OC)c2c3cc(ccc31)-c1csc(n1)C[C@H](NC(=O)[C@H](C(C)C)N(C)C(=O)N1CCC1)C(=O)N1CCC[C@H](N1)C(=O)OCC(C)(C)C2 (atropisomer, axis not shown) [Compound A399] | 0.01 to 0.1 | 0.01 to 0.1 |  |  | IC50 (NCI-H358 (K-Ras G12C)): < 0.01 µM
CCn1c(-c2cc(N3CCN(C)CC3)cnc2[C@H](C)OC)c2c3cc(ccc31)-c1csc(n1)C[C@H](NC(=O)[C@H](C(C)C)N(C)C(=O)N1CC(OC)C1)C(=O)N1CCC[C@H](N1)C(=O)OCC(C)(C)C2 (atropisomer, axis not shown) [Compound A466] | 0.01 to 0.1 | 0.01 to 0.1 |  |  | IC50 (NCI-H358 (K-Ras G12C)): < 0.01 µM
CCn1c(-c2cccnc2[C@H](C)OC)c2c3cc(ccc31)-c1csc(n1)C[C@H](NC(=O)[C@H](C(C)C)N(C)C(=O)N1CC(Cc3cnn(C)c3)C1)C(=O)N1CCC[C@H](N1)C(=O)OCC(C)(C)C2 (atropisomer, axis not shown) [Compound A500] | 0.01 to 0.1 | 0.01 to 0.1 |  |  | IC50 (NCI-H358 (K-Ras G12C)): < 0.01 µM
CCn1c(-c2cccnc2[C@H](C)OC)c2c3cc(ccc31)-c1csc(n1)C[C@H](NC(=O)[C@H](C(C)C)N(C)C(=O)N1C[C@@H]3CCN(C)C[C@@H]31)C(=O)N1CCC[C@H](N1)C(=O)OCC(C)(C)C2 (atropisomer, axis not shown) [Compound A516] |  |  | 1 to 10 |  | 
CCn1c(-c2cccnc2[C@H](C)OC)c2c3cc(ccc31)-c1csc(n1)C[C@H](NC(=O)[C@H](C(C)C)N(C)C(=O)N1C[C@H]3CCN(C)C[C@H]31)C(=O)N1CCC[C@H](N1)C(=O)OCC(C)(C)C2 (atropisomer, axis not shown) [Compound A517] |  |  | 1 to 10 |  | 
CCn1c(-c2cccnc2[C@H](C)OC)c2c3cc(ccc31)-c1csc(n1)C[C@H](NC(=O)[C@H](C(C)C)N(C)C(=O)N1CCN3C(=O)CN(C)C[C@@H]3C1)C(=O)N1CCC[C@H](N1)C(=O)OCC(C)(C)C2 (atropisomer, axis not shown) [Compound A536] | 0.01 to 0.1 | 0.01 to 0.1 |  |  | IC50 (NCI-H358 (K-Ras G12C)): < 0.01 µM
CCn1c(-c2cccnc2[C@H](C)OC)c2c3cc(ccc31)-c1csc(n1)C[C@H](NC(=O)[C@H](C(C)C)N(C)C(=O)N1CCC3(COC3)C1)C(=O)N1CCC[C@H](N1)C(=O)OCC(C)(C)C2 (atropisomer, axis not shown) [Compound A561] | 0.01 to 0.1 | 0.01 to 0.1 |  |  | IC50 (NCI-H358 (K-Ras G12C)): < 0.01 µM
CO[C@@H](C)c1ncccc1-c1c2c3cc(ccc3n1C)-c1cc(O)cc(c1)C[C@H](NC(=O)[C@H](C(C)C)N(C)C(C)=O)C(=O)N1CCC[C@H](N1)C(=O)OCC(C)(C)C2 (racemic) [Compound A104] |  | > 10 | 1 to 10 |  | 
CCn1c(-c2cccnc2[C@H](C)OC)c2c3cc(ccc31)-c1cc(cc(NC(C)=O)c1)C[C@H](NC(=O)[C@H](C(C)C)N(C)C(C)=O)C(=O)N1CCC[C@H](N1)C(=O)OCC(C)(C)C2 (racemic) [Compound A145] |  |  |  |  | IC50 (KRAS Q61H): 1 to 10 µM; IC50 (KRAS G12C): > 10 µM; IC50 (NRAS Q61K): > 10 µM; IC50 (NRAS Q61R): > 10 µM; IC50 (NRAS WT): > 10 µM
CCn1c(-c2cccnc2[C@H](C)OC)c2c3cc(ccc31)-c1cc(O)cc(c1)C[C@H](NC(=O)[C@H](C(C)C)N(C)C(=O)C1(C(=O)O)CC1)C(=O)N1CCC[C@H](N1)C(=O)OCC(C)(C)C2 (racemic) [Compound A150] |  | > 10 | 1 to 10 |  | 
CCn1c(-c2cccnc2[C@H](C)OC)c2c3cc(ccc31)-c1cc(cc3nc[nH]c13)C[C@H](NC(=O)[C@H](C(C)C)N(C)C(C)=O)C(=O)N1CCC[C@H](N1)C(=O)OCC(C)(C)C2 (racemic) [Compound A153] |  |  |  | > 10 | 
CCn1c(-c2cccnc2[C@H](C)OC)c2c3cc(ccc31)-c1cc(cc(S(C)(=O)=O)c1)C[C@H](NC(=O)[C@H](C(C)C)N(C)C(C)=O)C(=O)N1CCC[C@H](N1)C(=O)OCC(C)(C)C2 (racemic) [Compound A154] | > 10 | > 10 | > 10 | > 10 | IC50 (NRAS WT; [5]): > 10 µM
CCn1c(-c2cccnc2[C@H](C)OC)c2c3cc(ccc31)-c1cc(O)cc(c1)C[C@H](NS(=O)(=O)CC#N)C(=O)N1CCC[C@H](N1)C(=O)OCC(C)(C)C2 (racemic) [Compound A186] | > 10 |  | > 10 |  | IC50 (KRAS G12C): > 10 µM; IC50 (NRAS Q61R): > 10 µM; IC50 (NRAS WT; [5]): > 10 µM
CCn1c(-c2cccnc2[C@H](C)OC)c2c3cc(ccc31)-c1cc(O)cc(c1)C[C@H](NS(=O)(=O)N1CCC1)C(=O)N1CCC[C@H](N1)C(=O)OCC(C)(C)C2 (racemic) [Compound A189] | > 10 | > 10 | > 10 | > 10 | IC50 (NRAS WT; [5]): > 10 µM
CCn1c(-c2cccnc2[C@H](C)OC)c2c3cc(ccc31)-c1cc(O)cc(c1)C[C@H](NS(=O)(=O)C1CS(=O)(=O)C1)C(=O)N1CCC[C@H](N1)C(=O)OCC(C)(C)C2 (racemic) [Compound A191] | > 10 | > 10 | > 10 | > 10 | IC50 (NRAS WT; [5]): > 10 µM
CCn1c(-c2cccnc2[C@H](C)OC)c2c3cc(ccc31)-c1cc(O)cc(c1)C[C@H](NS(=O)(=O)N1CCOCC1)C(=O)N1CCC[C@H](N1)C(=O)OCC(C)(C)C2 (racemic) [Compound A194] |  |  |  |  | IC50 (KRAS G12C): > 10 µM
CCn1c(-c2cccnc2[C@H](C)OC)c2c3cc(ccc31)-c1cc(O)cc(c1)C[C@H](NS(=O)(=O)c1ccc(O)cc1)C(=O)N1CCC[C@H](N1)C(=O)OCC(C)(C)C2 (racemic) [Compound A195] |  |  |  | > 10 | 
CCn1c(-c2cccnc2[C@H](C)OC)c2c3cc(ccc31)-c1cc(O)cc(c1)C[C@H](NS(=O)(=O)C1CC1)C(=O)N1CCC[C@H](N1)C(=O)OCC(C)(C)C2 (racemic) [Compound A196] |  |  |  | > 10 | 
CCn1c(-c2cccnc2[C@H](C)OC)c2c3cc(ccc31)-c1cc(O)cc(c1)C[C@H](NS(=O)(=O)c1cn(C)c(C)n1)C(=O)N1CCC[C@H](N1)C(=O)OCC(C)(C)C2 (racemic) [Compound A197] |  |  |  | > 10 | 
CCn1c(-c2cccnc2[C@H](C)OC)c2c3cc(ccc31)-c1cc(O)cc(c1)C[C@H](NS(=O)(=O)c1ccc(OC)cc1OC)C(=O)N1CCC[C@H](N1)C(=O)OCC(C)(C)C2 (racemic) [Compound A198] |  |  |  |  | IC50 (KRAS G12C): > 10 µM
CCn1c(-c2cccnc2[C@H](C)OC)c2c3cc(ccc31)-c1cc(O)cc(c1)C[C@H](NS(=O)(=O)CC1CC1)C(=O)N1CCC[C@H](N1)C(=O)OCC(C)(C)C2 (racemic) [Compound A200] |  |  |  | > 10 | 
CCn1c(-c2cccnc2[C@H](C)OC)c2c3cc(ccc31)-c1csc(n1)C[C@H](NC(=O)[C@H](C(C)C)N1CCC3(CN(S(C)(=O)=O)C3)C1=O)C(=O)N1CCC[C@H](N1)C(=O)OCC(C)(C)C2 (racemic) [Compound A234] |  | > 10 | 1 to 10 | > 10 | 
CCn1c(-c2cccnc2[C@H](C)OC)c2c3cc(ccc31)-c1csc(n1)C[C@H](NC(=O)[C@H](C(C)C)N1CCC3(CN(C(=O)OC)C3)C1=O)C(=O)N1CCC[C@H](N1)C(=O)OCC(C)(C)C2 (racemic) [Compound A235] |  |  |  |  | IC50 (KRAS G12C): > 10 µM
CCn1c(-c2cccnc2[C@H](C)OC)c2c3cc(ccc31)-c1csc(n1)C[C@H](NC(=O)[C@H](C(C)C)N(C)C(=O)[C@H]1CCN(S(C)(=O)=O)C1)C(=O)N1CCC[C@H](N1)C(=O)OCC(C)(C)C2 (racemic) [Compound A237] |  |  | 1 to 10 |  | 
